Experimental data from patent US20100297229A1, “TAPENTADOL COMPOSITIONS” (Nectid Inc., priority 2007, published 2010).
Where a name gives a salt, the structure may show the parent alone.

How the values were obtained:
[1] = test system: Chronic non-cancer pain (CNCP); test: Study III: clinical trial of tapentadol and tramadol combination, VAS pain score; assay type: in vivo, human; details: mean ± SD, VAS 0-100 mm, N = 10
Experimental: The following general methods were used in all of the studies;
Randomization: Randomization was performed with computer-generated random numbers in blocks of 10. Randomization codes of the monotherapy or combination therapy treatments were placed in sequentially numbered, opaque, sealed envelopes in the biopsy center. When a patient was recruited and consented, the next numbered envelope was opened by the operator, who had no knowledge of the randomization code before the treatment
Scale and Measurement: Pain was assessed using a visual analogue scale (VAS) graded from 0-100 mm. Pain scoring was performed every visit Week 1, Week 2, Week 3, Week 4, Week 5 and Week 6. The patients were taught with a standard method by the physician how to use a VAS scoring from 0 to 100 mm to grade the intensity of pain experienced during the treatment. On that scale, the left endpoint, 0, was defined as no pain and the right endpoint 100, as the worst pain the patient could imagine. There were no further marks on the line. The intensity of pain was indicated by the distance in millimeters from the left end. Patients were asked to grade the pain intensity after the administration of drugs and the pain was assessed by the patient in their weekly pain score diary. The doctors who prescribed the medicines obtained all the VAS forms for that specific patient.
Statistical Analysis: Data are expressed as means±SD. Differences in VAS were analyzed with use of the unpaired Student t test and differences in pain score reductions between the two groups were analyzed with use of the Mann-Whitney U test for the median difference. Similar statistical tests were used for between group comparisons of other outcome variables as appropriate. A two tailed P value of less than. […] SAS software was used for the statistical analysis.
The Fixed dose combination of slow release tapentadol hydrochloride and tramadol hydrochloride was tested in a human clinical trial. In this study III, 40 patients were used in a clinical trial were suffering from Chronic non-cancer pain (CNCP), defined as pain for longer than 6 months, including neuropathic pain, osteoarthritis, rheumatoid arthritis, fibromyalgia, and back and musculoskeletal pain were included in the clinical trial. No effort was made to segregate the patients based on the type of pain nor did we evaluate the extent of pain relief on the basis of pain type. Those patients with migraines, dental pain, abdominal pains (from chronic pancreatitis, kidney stones, etc.) and ischemic pain from vascular disease were excluded because they are usually not classified as CNCP. Patients with history of addiction (alcohol or drugs) were excluded from the trials.

[2] = test system: pain intensity associated with knee osteoarthritis; test: Study I: 6-week clinical trial of tapentadol and NSAID combination, Arthritis Pain Intensity VAS; assay type: in vivo, human; details: primary endpoint; average of Weeks 1-6; knee osteoarthritis patients; FIG. 2

Compound | VAS Pain Score ([1]; time 0 hours) | VAS Pain Score ([1]; time 3 hours) | VAS Pain Score ([1]; time 6 hours) | VAS Pain Score ([1]; time 9 hours) | VAS Pain Score ([1]; time 12 hours) | VAS Pain Score ([1]; time 15 hours) | VAS Pain Score ([1]; time 18 hours) | VAS Pain Score ([1]; time 21 hours) | VAS Pain Score ([1]; time 24 hours) | LS Mean change from baseline over 6 weeks in the arthritis pain intensity VAS [2] [%]
COc1cccc([C@]2(O)CCCC[C@H]2CN(C)C)c1 (racemic) [Tramadol, (±) cis-2-[(dimethylamino)methyl]-1-(3-methoxyphenyl)cyclo-hexanol hydrochloride] | 32.4 ± 21.2 | 23.1 ± 20.1 | 18.8 ± 20.6 | 14.9 ± 17.2 | 13.1 ± 21.2 | 13.9 ± 19.2 | 15.4 ± 21.3 | 14.5 ± 19.2 | 13.9 ± 19.2 | 
COc1ccc2cc([C@H](C)C(=O)O)ccc2c1 [Naproxen, (+)-(S)-2-(6-methoxy-naphthalen-2-yl) propanoic acid] |  |  |  |  |  |  |  |  |  | 28
CC[C@@H](c1cccc(O)c1)[C@@H](C)CN(C)C [Tapentadol, 3-(3-Dimethylamino-1-ethyl-2-methyl-propyl)-phenol] | 33.7 ± 18.2 | 24.8 ± 19.1 | 21.1 ± 22.9 | 14.2 ± 23.1 | 11.2 ± 20.9 | 11.0 ± 16.2 | 9.5 ± 17.8 | 10.4 ± 16.2 | 11.6 ± 16.2 | 38
